Assay results as given in US9986723B2, “Screen and use of therapeutics for pancreatic ductal adenocarcinoma” (The Board of Regents of the University of Texas System, priority 2014, dated 2018).

Key:
AKT = assay: Gas6-induced phosphorylated Akt in Panc1 cells; format: cell-based, human; conditions: warfarin 1 μM, Gas6 1.3 nM
Method: (FIG. 24A) HEK293 cells engineered to stably express recombinant Gas6 were grown in the presence of Vitamin K or Vitamin K+warfarin. Gas6 levels and γ-carboxylation were assayed by immunoblotting conditioned media. Conditioned media from untransfected HEK293 cells was used as a negative control. (FIG. 24B) Panc1 cells were grown overnight in media with 1% serum with no additions (NT), warfarin (2 μM) or BGB324 (2 μM). Lysates were probed for total Axl (tAxl) and phosphorylated Axl (pAxl). (FIG. 24C) Panc1 cells were grown in the presence of control media, Vitamin K, warfarin or warfarin+Vitamin K. The level of phosphorylated Axl (pAXL, red) was determined by immunofluorescence. (FIG. 24D) Panc1 cells were grown overnight in media with 1% serum with no additions (control), warfarin (1 μM), Gas6 (1.3 nM) or Gas6+warfarin. Lysates were probed for phosphorylated Akt (pAkt) and actin. (FIG. 24E) Lysates from Panc1 tumors harvested from mice treated with control or warfarin were probed for expression of tAxl, pAxl, actin, pAKT, tAKT, and cleaved Parp. (FIG. 24F) The effect of warfarin on cell migration was assessed by a ‘scratch’ assay. Monolayers of the indicted cells were wounded with a pipet tip. The cells were incubated in media containing 2% serum+/−warfarin (2 μM) or media containing 2% serum+Gas6 (1.3 nM)+/−warfarin.

Mia PaCa-2 cells = assay: Spheroid assay in matrigel (3D culture); format: cell-based, human; conditions: warfarin 200 ng/ml, 7 days
Method: FIGS. 25A-I. Axl inhibition reduces colony formation and enhances chemotherapy. (FIGS. 25A-C) parental Mia PaCa-2 cells or Mia PaCa-2 cells stably transfected with shRNA targeting Axl (Mia shAxl) were grown as spheroids in matrigel for 7 days in the presence or absence of warfarin (200 ng/ml), n=4/condition. Mia PaCa-2 cell colonies form large stellate colonies characteristic of invasive tumor growth. Colonies and cognate cell projections were imaged (FIG. 25A) with a Nikon Phase contrast microscope using 40× and 200× magnification. Mean total colony number (FIG. 25B) and total colony area+/−s.d. (FIG. 25C) reflective of invasive growth were calculated using Image J image analysis. […] (FIG. 25E) liver metastases were quantified after intrasplenic injection of C5LM2 cells. […] Mice were sacrificed when control treated animals were moribund and primary and metastatic burden was determined. […]
For spheroid assays, matrigel was coated on 18×18 mm glass cover-slides in a 35 mm culture dish, using Reduced Growth Factor Matrigel (BD Bioscience) as described previously (Gjerdrum et al., 2010; Lee et al., 2007). […] Quantitative analysis of 3D organotypic structures was performed using Image J analysis software. Total number of established structures and the ability of established structures to migrate into the BM (Total area) were quantified and compared.

Pan02 tumors = assay: Low dose warfarin in drinking water, syngenic orthotopic model; format: in vivo, mouse; conditions: warfarin 0.5 mg/L drinking water
Method: (FIG. 23A) Primary tumor burden after therapy with warfarin. Therapy was initiated when implanted tumors were visible by ultrasound (˜10 mm^3) and consisted of control (normal drinking water) or warfarin, administered in the drinking water at 0.5 mg/L (immunocompetent mice: Pan02 (n=4, control; 3, warfarin), KIC (n=10, control; 8, warfarin)) or 1 mg/L (Panc-1 (n=10, control; 8, warfarin), AsPC-1 (n=8, control; 6, warfarin), Capan-1 (n=10, control; 7, warfarin)) and continued for 2-4 weeks until control mice were moribund. Therapy in KIC mice was initiated at 3 weeks of age and continued for 4 weeks. (FIG. 23B) Metastases were determined grossly upon sacrifice and confirmed by histological evaluation of the liver. […] Incidence of metastasis is also indicated. […] Tumor volume determined by serial ultrasound. […] Therapy with mAb 10C9 (250 μg 2×/week) was initiated when tumors were established as above and persisted for 4 weeks. […] Error bars indicate s.e.m.
Animal studies. […] Mice with established tumors, as determined by sonography were randomized to receive normal drinking water or water containing 1 mg/L (˜3.0 μM) warfarin for experiments in immunocompromised mice and 0.5 mg/L (˜1.5 μM) in experiments in immunocompetent animals with or without gemcitabine 25 mg/kg twice weekly depending on experimental design.

SMILES: CC(=O)CC(c1ccccc1)c1c(O)c2ccccc2oc1=O (racemic) [Warfarin]
- Gas6-induced activation of AKT (AKT): inhibited
- tumor cell sphere formation and invasiveness in 3D culture (Mia PaCa-2 cells): inhibited
- primary tumor growth (Pan02 tumors): reduced primary tumor growth
